In assay [1] the test system is SK-MEL-28. Put plainly: Scratch wound healing assay, SK-MEL-28. To be noted: 0, ½IC50, IC50, 1½IC50; 48 h; vs untreated control. It is filed as cell-based, human. The procedure:
The scratch wound healing assay was performed to evaluate compound P25’s ability to limit cell migration and scratch wound closure following our previously described protocol. Briefly, cells were seeded in wells of a 24-well plate and incubated to 100% confluent monolayer, following which a sterile 200 µL Gilson pipette tip was used to scratch a straight line across the centre. […] The wounded and re-epithelialisation areas were imaged at 0 h, 24 h, and 48 h using an inverted phase-contrast Olympus IX51 microscope (Olympus America Inc., Center Valley, PA) attached to an Infinity 2 digital camera. Images were processed with an Infinity analysis software version 6.5.6 (Teledyne Lumenera, Ottawa, Canada) and analysed with Adobe Photoshop. The ImageJ software (NIH, Bethesda, MD) was used to measure the migratory area of each treatment group, with results expressed as remaining percentage of unfilled wound surface at 0 h[108].

Assay [2] concerns SK-MEL-28. As to the kind of experiment: Colony formation assay, SK-MEL-28. It is filed as cell-based, human. As to conditions: 0, ½IC50, IC50, 1½IC50; 14 days; vs untreated control. The procedure: (§1) Cells were then trypsinised, and 1000 viable cells from each treated group were seeded on […] in 10 mL of the medium, and incubated for an additional 14 days before fixation and crystal violet staining, imaging, and colonies assessment as previously described[109]^,[116]. The plates were scanned, and the area of clones was quantified with the free software Image J (Bethesda, MD) (https://imagej.nih.gov/ij/).

The subject of assay [3] is SK-MEL-28. Put plainly: MTT antiproliferative/cytotoxicity assay, SK-MEL-28. It is filed as cell-based, human. To be noted: Homo sapiens, SK-MEL-28, 48 h, melanoma, MTT, 48 h; read-out: IC50 SKMEL-28. In short, it runs like this: (§2)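 Cells at 65–75% confluence treated with 0–40 µM compound (diluted in growth medium from 10 mM DMSO stocks) in sext- to octuplicate for 48 h; viability by MTT. A375 and HaCaT in DMEM with 10% and 5% FBS respectively; SK-MEL-28 in RPMI-1640 with 5% FBS; 37 °C, 5% CO2.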

A further assay concerns A375. As to the kind of experiment: MTT antiproliferative/cytotoxicity assay, A375. It is filed as cell-based, human. To be noted: Homo sapiens, A-375, 48 h, melanoma, MTT, 48 h; read-out: IC50 A375. In short, it runs like this:
as §2

Assay [4] is described as follows: DPPH free radical scavenging assay.
The subject of another assay is A431. Put plainly: Colony formation assay, A431. It is filed as cell-based, human. To be noted: 0, ½IC50, IC50, 1½IC50; 14 days; vs untreated control. The procedure:
as §1

One may read the IC50 as the concentration needed to halve the response being measured. On to `O=C1CC(c2ccccc2)=NN1c1ccc(Br)cc1` [P25], for which the “scratch wound closure / migration, SK-MEL-28” value with SK-MEL-28 [1] is “significantly and dose-dependently decreased the scratch wound areas”. Moreover, in the assay with SK-MEL-28 [2], the “colony formation, SK-MEL-28” value is on record as “significant concentration-dependent reductions in the relative percentage of colonies formed”. The IC50 in the assay on SK-MEL-28 [3] was 7.6 ± 0.6 µM; with A375 it was 14.3 ± 0.9 µM; in assay [4] (N.A. = No Activity, > 1000 = not biologically relevant, read-out: IC50 Value, DPPH antioxidant activity (Table S4)), 190 µM. Further, in assay [4] (1 mM), the “Percent Scavenging (DPPH)” value amounted to 77.30%. In addition, the “colony formation, A431” value in the assay on A431 was “significant concentration-dependent reductions in the relative percentage of colonies formed”.

The values are drawn from publication PMC10187093, “Synthesis, in silico modelling, and in vitro biological evaluation of substituted pyrazole derivatives as potential anti-skin cancer, anti-tyrosinase, and antioxidant agents” (Journal of Enzyme Inhibition and Medicinal Chemistry, 2023).
